Source: US20230099293A1, “OGA INHIBITOR COMPOUNDS” (priority 2019, published 2023)

Legend:
hOGA = target: T1, hOGA (Homo sapiens, UniProt O60502); experiment: OGA cellular assay (ICC detection of O-GlcNAcylated proteins in HEK293 cells inducible for P301L mutant human Tau); format: cell-based; set-up: Emax: dose or concentration left out as unconfirmed; conditions: for EC50: Cellular hOGA; for Emax: HEK293, read-out: Cellular Emax (%)
T1 construct: endogenous in cells; host or cells: HEK293 cells inducible for P301L mutant human Tau (isoform 2N4R)
T1 sequence (O60502 1-916): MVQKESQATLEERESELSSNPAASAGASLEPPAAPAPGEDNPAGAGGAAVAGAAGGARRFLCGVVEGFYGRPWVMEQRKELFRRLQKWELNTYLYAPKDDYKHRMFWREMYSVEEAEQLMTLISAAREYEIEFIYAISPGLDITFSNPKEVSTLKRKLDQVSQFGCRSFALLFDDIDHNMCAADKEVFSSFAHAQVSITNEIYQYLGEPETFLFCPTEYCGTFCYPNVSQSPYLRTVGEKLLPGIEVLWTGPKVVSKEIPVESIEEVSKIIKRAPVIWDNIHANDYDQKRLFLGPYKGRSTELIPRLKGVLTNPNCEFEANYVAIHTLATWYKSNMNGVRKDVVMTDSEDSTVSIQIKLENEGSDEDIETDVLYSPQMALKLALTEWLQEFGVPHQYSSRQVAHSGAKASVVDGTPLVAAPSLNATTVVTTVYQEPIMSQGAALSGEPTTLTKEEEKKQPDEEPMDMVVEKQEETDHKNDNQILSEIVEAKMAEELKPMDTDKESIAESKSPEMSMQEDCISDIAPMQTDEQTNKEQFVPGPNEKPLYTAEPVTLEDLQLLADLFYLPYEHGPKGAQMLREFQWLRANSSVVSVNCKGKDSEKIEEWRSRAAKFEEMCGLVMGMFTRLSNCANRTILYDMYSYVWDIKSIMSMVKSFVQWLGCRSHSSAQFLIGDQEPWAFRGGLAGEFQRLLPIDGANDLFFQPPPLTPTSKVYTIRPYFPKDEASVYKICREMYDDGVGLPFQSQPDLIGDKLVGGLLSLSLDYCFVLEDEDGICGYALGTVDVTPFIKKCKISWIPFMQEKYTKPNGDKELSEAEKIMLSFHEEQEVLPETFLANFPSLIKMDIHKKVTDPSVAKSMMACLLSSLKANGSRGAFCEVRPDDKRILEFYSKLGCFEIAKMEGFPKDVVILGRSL
Protocol: HEK293 cells inducible for P301L mutant human Tau (isoform 2N4R) were established at Janssen. Thiamet-G was used for both plate validation (high control) and as reference compound (reference EC50 assay validation). OGA inhibition is evaluated through the immunocytochemical (ICC) detection of O-GlcNAcylated proteins by the use of a monoclonal antibody (CTD110.6; Cell Signaling, #9875) detecting O-GlcNAcylated residues as previously described (Dorfmueller et al. 2010 Chemistry & biology, 17:1250). Inhibition of OGA will result in an increase of O-GlcNAcylated protein levels resulting in an increased signal in the experiment. Cell nuclei are stained with Hoechst to give a cell culture quality control and a rough estimate of immediate compounds toxicity, if any. ICC pictures are imaged with a Perkin Elmer Opera Phenix plate microscope and quantified with the provided software Perkin Elmer Harmony 4.1.
Cells were propagated in DMEM high Glucose (Sigma, #D5796) following standard procedures. 2 days before the cell assay cells are split, counted and seeded in Poly-D-Lysine (PDL) coated 96-wells (Greiner, #655946) plate at a cell density of 12,000 cells per cm^2 (4,000 cells per well) in 100 μl of Assay Medium (Low Glucose medium is used to reduce basal levels of GlcNAcylation) (Park et al. 2014 The Journal of biological chemistry 289:13519). At the day of compound test medium from assay plates was removed and replenished with 90 μl of fresh Assay Medium. 10 μl of compounds at a 10 fold final concentration were added to the wells. Plates were centrifuged shortly before incubation in the cell incubator for 6 hours. DMSO concentration was set to 0.2%. Medium is discarded by applying vacuum. For staining of cells medium was removed and cells washed once with 100 μl D-PBS (Sigma, #D8537). From next step onwards unless other stated assay volume was always 50 μl and incubation was performed without agitation and at room temperature. Cells were fixed in 50 μl of a 4% paraformaldehyde (PFA, Alpha aesar, #043368) PBS solution for 15 minutes at room temperature. […] Before analysis samples were washed 2 times manually for 5 minutes in ICC base buffer.
Imaging is performed using Perkin Elmer Phenix Opera using a water 20× objective and recording 9 fields per well. Intensity readout at 488 nm is used as a measure of O-GlcNAcylation level of total proteins in wells. To assess potential toxicity of compounds nuclei were counted using the Hoechst staining. IC50-values are calculated using parametric non-linear regression model fitting. As a maximum inhibition Thiamet Gat a 200 uM concentration is present on each plate. In addition, a concentration response of Thiamet G is calculated on each plate.

[1] = target: T2, recombinant human Meningioma Expressed Antigen 5 (MGEA5), also referred to as O-GlcNAcase (OGA) (Homo sapiens, UniProt O60502); experiment: OGA biochemical assay (inhibition of FM-GlcNAc hydrolysis, fluorescence); conditions: for IC50: Enzymatic hOGA; for Emax: read-out: Enzymatic Emax (%)
T2 construct: Full length OGA enzyme was purchased at OriGene (cat #TP322411); purchased OriGene TP322411
T2 sequence (O60502 1-916): T1 sequence (O60502 1-916)
Protocol: The hydrolysis FM-GlcNAc (Marker Gene technologies, cat #M1485) results in the formation of β-D-N-glucosamineacetate and fluorescein. The fluorescence of the latter can be measured at excitation wavelength 485 nm and emission wavelength 538 nm. An increase in enzyme activity results in an increase in fluorescence signal. Full length OGA enzyme was purchased at OriGene (cat #TP322411). The enzyme was stored in 25 mM Tris.HCl, pH 7.3, 100 mM glycine, 10% glycerol at −20° C. […] The assay was performed in 200 mM Citrate/phosphate buffer supplemented with 0.005% Tween-20. 35.6 g Na2HIPO42H2O (Sigma, #C0759) were dissolved in 1 L water to obtain a 200 mM solution. […] The buffer to stop the reaction consists of a 500 mM Carbonate buffer, pH 11.0. […] OGA was used at a 2 nM concentration and FM-GlcNAc at a 100 uM final concentration. Dilutions were prepared in assay buffer.
Plates were pre-incubated for 60 min at room temperature and then 2 μl FM-GlcNAc substrate mix added. […] Plates were briefly centrifuged for 1 min at 1000 rpm and incubate at room temperature for 6 h. To stop the reaction 5 μl STOP buffer were added and plates centrifuge again 1 min at 1000 rpm. Fluorescence was quantified in the Thermo Scientific Fluoroskan Ascent or the PerkinElmer EnVision with excitation wavelength 485 nm and emission wavelength 538 nm.
For analysis a best-fit curve is fitted by a minimum sum of squares method. From this an IC50 value and Hill coefficient was obtained. High control (no inhibitor) and low control (saturating concentrations of standard inhibitor) were used to define the minimum and maximum values.

[2] = pEC50, Table 5, HEK293 P301L Tau cells, 6 hours incubation, O-GlcNAcylation readout
[3] = pIC50, Table 5, full length OGA 2 nM, FM-GlcNAc 100 uM, 6 h at room temperature

Compound	melting point	EC50 (hOGA; [2])	Emax (hOGA)	IC50 [1, 3]	Emax [1]	EC50 (hOGA; pEC50, second table, averaged values over several runs, obtained after recalibration of the equipment)	IC50 ([1]; pIC50, second table, averaged values over several runs, obtained after recalibration of the equipment)
Cc1cc(C(F)(F)F)cc(F)c1Nc1nccc2c1ncn2CC(=O)N(C)C1CC1	219.8 °C						
Cc1cc(C(F)(F)F)cc(F)c1Nc1nccc2c1ncn2CC(=O)N(C)CC(F)(F)F	238.3 °C						
[2H]C([2H])([2H])N(C)C(=O)Cn1cnc2c(Nc3c(C)cc(C(F)(F)F)cc3C)nccc21	212.2 °C						
Cc1ccnc(C(C)C)c1Nc1nccc2c1ncn2CC(C)(F)F [Compound 1, 1-(2,2-Difluoropropyl)-N-(2-isopropyl-4-methylpyridin-3-yl)-1H-imidazo[4,5-c]pyridin-4-amine]		45.7 nM	81%	5.13 nM	101%		
Cc1cc(C(F)(F)F)cc(Cl)c1Nc1nccc2c1ncn2CC(C)(F)F [Compound 2]		95.5 nM	87%	6.03 nM	99%		
Cc1cc(F)cc(F)c1Nc1nccc2c1ncn2CC(C)(F)F [Compound 3]	174.99 °C	741 nM	57%	25.7 nM	101%		
CNC(=O)Cn1cnc2c(Nc3c(C)cc(C(F)(F)F)cc3C)nccc21 [Compound 4, 2-(4-((2,6-Dimethyl-4-(trifluoromethyl)phenyl)amino)-1H-imidazo[4,5-c]pyridin-1-yl)-N-methylacetamide]	275.1 °C	55 nM	101%	3.39 nM	98%		
Cc1cc(C(F)(F)F)cc(C)c1Nc1nccc2c1ncn2CC(N)=O [Compound 5, 2-[4-[2,6-Dimethyl-4-(trifluoromethyl)anilino]imidazo[4,5-c]pyridin-1-yl]acetamide]	266.8 °C	447 nM	67%	120 nM	91%		
Cc1cc(C(F)(F)F)cc(C)c1Nc1ncc(C)c2c1ncn2CC(=O)N(C)C [Compound 6, 2-(4-((2,6-Dimethyl-4-(trifluoromethyl)phenyl)amino)-7-methyl-1H-imidazo[4,5-c]pyridin-1-yl)-N,N-dimethylacetamide]	238.3 °C	288 nM	60%	19.1 nM	99%		
CN(C)C(=O)Cn1cnc2c(Nc3c(Cl)cc(OC(F)(F)F)cc3Cl)nccc21 [Compound 7]	201.5 °C	372 nM	66%	6.92 nM	102%		
COc1cc(C)c(Nc2nccc3c2ncn3CC(=O)N(C)C)c(C)c1 [Compound 8]	230 °C	26.9 nM	98%	5.5 nM	97%		
Cc1cc(OC(F)(F)F)cc(C)c1Nc1nccc2c1ncn2CC(=O)N(C)C [Compound 9]	186.5 °C	58.9 nM	82%	6.76 nM	99%		
CCc1cc(C(F)(F)F)cc(C)c1Nc1nccc2c1ncn2CC(=O)N(C)C [Compound 10]	211.6 °C	100 nM	100%	9.33 nM	100%		
Cc1cc(Cl)cc(C)c1Nc1nccc2c1ncn2CC(=O)N(C)C [Compound 11]	209.8 °C	209 nM	62%	10 nM	99%		
Cc1cc(C(F)(F)F)cc(C(C)C)c1Nc1nccc2c1ncn2CC(=O)N(C)C [Compound 12]	234.4 °C	46.8 nM	88%	10.7 nM	101%		
Cc1cc2c(cnn2C)c(C)c1Nc1nccc2c1ncn2CC(=O)N(C)C [Compound 13]	265.1 °C	69.2 nM	113%	13.8 nM	98%		
Cc1ccnc(C(C)C)c1Nc1nccc2c1ncn2CC(=O)N(C)C [Compound 14]	223.3 °C	427 nM	75%	14.1 nM	100%		
Cc1cc(C(F)(F)F)cc(Cl)c1Nc1nccc2c1ncn2CC(=O)N(C)C [Compound 15]	214.14 °C	204 nM	64%	14.1 nM	98%		
Cc1cc(F)cc(F)c1Nc1nccc2c1ncn2CC(=O)N(C)C [Compound 26]		> 1000 nM	8%	191 nM	98%		
Cc1cc(C(F)(F)F)nc(C)c1Nc1nccc2c1ncn2CC(=O)N1CCC1 [Compound 51]		> 1000 nM	15%	1480 nM	82%		
CCCCn1cnc2c(Nc3c(Cl)cncc3Cl)nccc21 [Compound 58]				525 nM	95%		
CCCCn1ncc2c(Nc3c(Cl)cncc3Cl)nccc21 [Compound 67]		> 1000 nM	6%	513 nM	94%		
CCCCn1ncc2c(Nc3c(C)cncc3C)nccc21 [Compound 68]				7590 nM	61%		
Cc1cc(C(F)(F)F)cc(C)c1Nc1nccc2c1ncn2-c1ncn(C)c1C [Compound 83]						> 1000 nM	1170 nM
